Results as given in patent US20260347338A1, “PYRIMIDINE/PYRIDINE DERIVATIVES OR SALTS THEREOF AND PHARMACEUTICAL COMPOSITIONS COMPRISING THE SAME” (YUHAN CORPORATION, priority 2023, published 2026).
Structures can show the parent of a compound that is named as a salt.

biological target: T1, human recombinant HPK1 (Homo sapiens, UniProt Q92918); experiment: Inhibitory activity against human recombinant HPK1 (TR-FRET); type: biochemical; conditions: ULight-p70S6K peptide, ATP at Km, room temperature, 1 hour, 0.32 to 1000 nM compound
T1 construct: purchased BPS Bioscience
T1 sequence (Q92918 whole entry): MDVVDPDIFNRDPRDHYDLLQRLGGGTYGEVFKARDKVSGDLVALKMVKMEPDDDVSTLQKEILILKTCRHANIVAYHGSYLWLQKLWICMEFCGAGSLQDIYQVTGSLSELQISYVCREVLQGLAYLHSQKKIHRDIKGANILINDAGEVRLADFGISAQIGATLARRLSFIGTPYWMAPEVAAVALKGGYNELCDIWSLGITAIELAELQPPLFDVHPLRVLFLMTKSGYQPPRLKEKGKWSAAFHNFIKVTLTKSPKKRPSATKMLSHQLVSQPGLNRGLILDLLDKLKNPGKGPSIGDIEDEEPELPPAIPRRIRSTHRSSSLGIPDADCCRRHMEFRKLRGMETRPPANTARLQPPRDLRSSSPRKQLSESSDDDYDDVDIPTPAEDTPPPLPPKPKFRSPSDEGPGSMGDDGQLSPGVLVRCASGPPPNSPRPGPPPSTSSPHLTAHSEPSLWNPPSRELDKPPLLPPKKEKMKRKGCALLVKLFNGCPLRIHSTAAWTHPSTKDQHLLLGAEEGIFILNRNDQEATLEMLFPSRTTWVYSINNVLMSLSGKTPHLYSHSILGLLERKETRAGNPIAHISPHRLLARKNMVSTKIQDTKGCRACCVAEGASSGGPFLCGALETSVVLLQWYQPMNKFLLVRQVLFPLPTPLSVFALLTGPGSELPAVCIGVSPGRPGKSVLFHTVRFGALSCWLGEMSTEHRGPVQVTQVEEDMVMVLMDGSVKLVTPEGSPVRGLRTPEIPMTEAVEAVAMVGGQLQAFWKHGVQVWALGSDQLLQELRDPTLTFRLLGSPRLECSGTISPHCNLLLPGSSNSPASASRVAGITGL
Method in brief: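 Recombinant human HPK1 with ULight-p70S6K peptide and ATP at Km, 1 h at room temperature in HEPES pH 7.4 buffer with Mg2+, Mn2+, EGTA, DTT; compounds 0.32–1000 nM final. EDTA stop, Eu-anti-phosphopeptide TR-FRET read (665 nm); IC50 from % inhibition versus DMSO, binned A–D at 10, 50, 100 nM.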

| SMILES | IC50 [nM] |
| --- | --- |
| COc1cc(F)cc(F)c1-c1nccc(Nc2cc(N3CCC[C@H](N)C3)c(C#CC3CCOCC3)cn2)n1 [Example 110, (S)-N-(4-(3-aminopiperidin-1-yl)-5-((tetrahydro-2H-pyran-4-yl)ethynyl)pyridin-2-yl)-2-(2,4-difluoro-6-methoxyphenyl)pyrimidin-4-amine] | ≤ 10 |
| COc1cccc(F)c1-c1nccc(Nc2cc(N3CCC[C@H](N)C3)c(C#Cc3cnn(C(F)(F)F)c3)cn2)n1 [Example 111, (S)-N-(4-(3-aminopiperidin-1-yl)-5-((1-(trifluoromethyl)-1H-pyrazol-4-yl)ethynyl)pyridin-2-yl)-2-(2-fluoro-6-methoxyphenyl)pyrimidin-4-amine hydrochloride] | ≤ 10 |
| COc1cccc(F)c1-c1nc(Nc2cc(N3CCC[C@H](O)C3)c(-c3cnn(C4CCOCC4)c3)cn2)ccc1C(N)=O [Example 112, 2-(2-fluoro-6-methoxyphenyl)-6-((4-((S)-3-hydroxypiperidin-1-yl)-5-(1-(tetrahydro-2H-pyran-4-yl)-1H-pyrazol-4-yl)pyridin-2-yl)amino)nicotinamide] | ≤ 10 |
| COc1cccc(F)c1-c1nc(Nc2cc(N3CCC[C@H](O)C3)c(-c3cnn(C4CCOCC4)c3)cn2)ccc1C(=O)N(C)C [Example 113, 2-(2-fluoro-6-methoxyphenyl)-6-((4-((S)-3-hydroxypiperidin-1-yl)-5-(1-(tetrahydro-2H-pyran-4-yl)-1H-pyrazol-4-yl)pyridin-2-yl)amino)-N,N-dimethylnicotinamide] | 10 to 50 |
| COc1cccc(F)c1-c1nc(Nc2cc(N3CCC[C@H](N)C3)c(C#Cc3cnn(C(F)(F)F)c3)cn2)ccc1F [Example 114, 4-((S)-3-aminopiperidin-1-yl)-N-(5-fluoro-6-(2-fluoro-6-methoxyphenyl)pyridin-2-yl)-5-((1-(trifluoromethyl)-1H-pyrazol-4-yl)ethynyl)pyridin-2-amine hydrochloride] | ≤ 10 |
| N[C@H]1CCCN(c2cc(Nc3ccnc(-c4cc5nccnc5cc4F)n3)ncc2C#Cc2cnn(C(F)(F)F)c2)C1 [Example 115, (S)-N-(4-(3-aminopiperidin-1-yl)-5-((1-(trifluoromethyl)-1H-pyrazol-4-yl)ethynyl)pyridin-2-yl)-2-(7-fluoroquinoxalin-6-yl)pyrimidin-4-amine hydrochloride] | ≤ 10 |
| COCCCn1cc(-c2cnc(Nc3ccnc(-c4c(F)cccc4OC)n3)cc2N2CCC[C@H](N)C2)cn1 [Example 116, (S)-N-(4-(3-aminopiperidin-1-yl)-5-(1-(3-methoxypropyl)-1H-pyrazol-4-yl)pyridin-2-yl)-2-(2-fluoro-6-methoxyphenyl)pyrimidin-4-amine hydrochloride] | ≤ 10 |
| COc1cccc(F)c1-c1nccc(Nc2cc(N3CCC4(CCN(C)C4)CC3)c(-c3cnn(C4CCOCC4)c3)cn2)n1 [Example 117, 2-(2-fluoro-6-methoxyphenyl)-N-(4-(2-methyl-2,8-diazaspiro[4.5]decan-8-yl)-5-(1-(tetrahydro-2H-pyran-4-yl)-1H-pyrazol-4-yl)pyridin-2-yl)pyrimidin-4-amine] | ≤ 10 |
| COc1cccc(F)c1-c1nccc(Nc2cc(N3CCC[C@H](N)C3)c(-c3ccc(N(C)C)nc3)cn2)n1 [Example 118, (S)-4-(3-aminopiperidin-1-yl)-N^6-(2-(2-fluoro-6-methoxyphenyl)pyrimidin-4-yl)-N^6′,N^6′-dimethyl-[3,3′-bipyridin]-6,6′-diamine hydrochloride] | ≤ 10 |
| COc1cccc(F)c1-c1nccc(Nc2cc(N3CCC[C@H](N)C3)c(-c3ccc(N4CCCC4)nc3)cn2)n1 [Example 119, (S)-4-(3-aminopiperidin-1-yl)-N-(2-(2-fluoro-6-methoxyphenyl)pyrimidin-4-yl)-6′-(pyrrolidin-1-yl)-[3,3′-bipyridin]-6-amine hydrochloride] | ≤ 10 |
| COc1cccc(F)c1-c1nccc(Nc2cc(N3CCC[C@H](N)C3)c(-c3ccc(N4CCCCC4)nc3)cn2)n1 [Example 120, (S)-4-(3-aminopiperidin-1-yl)-N-(2-(2-fluoro-6-methoxyphenyl)pyrimidin-4-yl)-6′-(piperidin-1-yl)-[3,3′-bipyridin]-6-amine hydrochloride] | ≤ 10 |
| COc1cccc(F)c1-c1nccc(Nc2cc(N3CCC[C@H](N)C3)c(-c3ccc(N4CCOCC4)nc3)cn2)n1 [Example 121, (S)-4-(3-aminopiperidin-1-yl)-N-(2-(2-fluoro-6-methoxyphenyl)pyrimidin-4-yl)-6′-morpholino-[3,3′-bipyridin]-6-amine hydrochloride] | ≤ 10 |
| CN[C@H]1CCCN(c2cc(Nc3ccnc(-c4c(F)cccc4OC)n3)ncc2-c2cnn(C(F)F)c2)C1 [Example 122, (S)-N-(5-(1-(difluoromethyl)-1H-pyrazol-4-yl)-4-(3-(methylamino)piperidin-1-yl)pyridin-2-yl)-2-(2-fluoro-6-methoxyphenyl)pyrimidin-4-amine hydrochloride] | ≤ 10 |
| CN[C@@H]1CCCN(c2cc(Nc3ccnc(-c4c(F)cccc4OC)n3)ncc2-c2cnn(C(F)F)c2)C1 [Example 123, (R)-N-(5-(1-(difluoromethyl)-1H-pyrazol-4-yl)-4-(3-(methylamino)piperidin-1-yl)pyridin-2-yl)-2-(2-fluoro-6-methoxyphenyl)pyrimidin-4-amine hydrochloride] | 10 to 50 |
| CN[C@H]1CCN(c2cc(Nc3ccnc(-c4c(F)cccc4OC)n3)ncc2-c2cnn(C3CCOCC3)c2)C1 [Example 124, (S)-2-(2-fluoro-6-methoxyphenyl)-N-(4-(3-(methylamino)pyrrolidin-1-yl)-5-(1-(tetrahydro-2H-pyran-4-yl)-1H-pyrazol-4-yl)pyridin-2-yl)pyrimidin-4-amine] | ≤ 10 |
| CCN[C@H]1CCN(c2cc(Nc3ccnc(-c4c(F)cccc4OC)n3)ncc2-c2cnn(C3CCOCC3)c2)C1 [Example 125, (S)-N-(4-(3-(ethylamino)pyrrolidin-1-yl)-5-(1-(tetrahydro-2H-pyran-4-yl)-1H-pyrazol-4-yl)pyridin-2-yl)-2-(2-fluoro-6-methoxyphenyl)pyrimidin-4-amine] | ≤ 10 |

Other lines, results leading:

| IC50 [nM] | SMILES |
| --- | --- |
| ≤ 10 | COc1cc(CO)cc(F)c1-c1nccc(Nc2cc(N3CCC[C@H](N)C3)c(-c3cnn(C(F)F)c3)cn2)n1 [Example 101, (S)-(4-(4-((4-(3-aminopiperidin-1-yl)-5-(1-(difluoromethyl)-1H-pyrazol-4-yl)pyridin-2-yl)amino)pyrimidin-2-yl)-3-fluoro-5-methoxyphenyl)methanol hydrochloride] |
| ≤ 10 | COc1cc(CO)cc(F)c1-c1nccc(Nc2cc(N3CCC[C@H](N)C3)c(-c3cnn(CC(F)(F)F)c3)cn2)n1 [Example 102, (S)-(4-(4-((4-(3-aminopiperidin-1-yl)-5-(1-(2,2,2-trifluoroethyl)-1H-pyrazol-4-yl)pyridin-2-yl)amino)pyrimidin-2-yl)-3-fluoro-5-methoxyphenyl)methanol hydrochloride] |
| ≤ 10 | COc1cc(CO)cc(F)c1-c1nccc(Nc2cc(N3CCC[C@H](N)C3)c(C#CC3CCOCC3)cn2)n1 [Example 103, (S)-(4-(4-((4-(3-aminopiperidin-1-yl)-5-((tetrahydro-2H-pyran-4-yl)ethynyl)pyridin-2-yl)amino)pyrimidin-2-yl)-3-fluoro-5-methoxyphenyl)methanol hydrochloride] |
| ≤ 10 | COc1cc(CN(C)C)cc(F)c1-c1nccc(Nc2cc(N3CCC[C@H](N)C3)c(-c3cnn(C(F)F)c3)cn2)n1 [Example 104, (S)-N-(4-(3-aminopiperidin-1-yl)-5-(1-(difluoromethyl)-1H-pyrazol-4-yl)pyridin-2-yl)-2-(4-((dimethylamino)methyl)-2-fluoro-6-methoxyphenyl)pyrimidin-4-amine hydrochloride] |
| ≤ 10 | COc1cc(CN(C)C)cc(F)c1-c1nccc(Nc2cc(N3CCC[C@H](N)C3)c(-c3cnn(CC(F)(F)F)c3)cn2)n1 [Example 105, (S)-N-(4-(3-aminopiperidin-1-yl)-5-(1-(2,2,2-trifluoroethyl)-1H-pyrazol-4-yl)pyridin-2-yl)-2-(4-((dimethylamino)methyl)-2-fluoro-6-methoxyphenyl)pyrimidin-4-amine hydrochloride] |
| ≤ 10 | COc1cc(CN(C)C)cc(F)c1-c1nccc(Nc2cc(N3CCC[C@H](N)C3)c(C#CC3CCOCC3)cn2)n1 [Example 106, (S)-N-(4-(3-aminopiperidin-1-yl)-5-((tetrahydro-2H-pyran-4-yl)ethynyl)pyridin-2-yl)-2-(4-((dimethylamino)methyl)-2-fluoro-6-methoxyphenyl)pyrimidin-4-amine hydrochloride] |
| ≤ 10 | COc1cccc(F)c1-c1nccc(Nc2cc(N3CCC[C@H](N)C3)c(-c3cnn(C(F)(F)F)c3)cn2)n1 [Example 107, (S)-N-(4-(3-aminopiperidin-1-yl)-5-(1-(trifluoromethyl)-1H-pyrazol-4-yl)pyridin-2-yl)-2-(2-fluoro-6-methoxyphenyl)pyrimidin-4-amine hydrochloride] |
| ≤ 10 | COc1cc(F)cc(F)c1-c1nccc(Nc2cc(N3CCC[C@H](N)C3)c(-c3cnn(C(F)F)c3)cn2)n1 [Example 108, (S)-N-(4-(3-aminopiperidin-1-yl)-5-(1-(difluoromethyl)-1H-pyrazol-4-yl)pyridin-2-yl)-2-(2,4-difluoro-6-methoxyphenyl)pyrimidin-4-amine hydrochloride] |
| ≤ 10 | COc1cc(F)cc(F)c1-c1nccc(Nc2cc(N3CCC[C@H](N)C3)c(-c3cnn(CC(F)(F)F)c3)cn2)n1 [Example 109, (S)-N-(4-(3-aminopiperidin-1-yl)-5-(1-(2,2,2-trifluoroethyl)-1H-pyrazol-4-yl)pyridin-2-yl)-2-(2,4-difluoro-6-methoxyphenyl)pyrimidin-4-amine] |
